Series [1] can be described thus: Binding in brain homogenate from rat (equilibrium dialysis). In kind it is in vitro ADME. As to the method: Binding in brain homogenate from rat.
Determination of fraction unbound (f u) in brain homogenate from rat was conducted using the same methodology and procedure than described for plasma protein binding assay with the following modifications: 1) a final compound concentration of 1 μM was used, 2) naïve rat brains were homogenized in DPBS (1:3 composition of brain: DPBS, w/w) using a Mini-Bead Beater™ machine in order to obtain […]
The diluted fraction unbound (f u2) in brain was calculated as (analyte to IS MS peak area ratio from Trans-buffer side) / (analyte to IS MS peak area ratio from Cis-brain homogenate side). Undiluted fraction unbound for the brain was calculated using the following equation: […]
Mean values for each species were calculated from 3 replicates. […]

The nature of series [2]: Intrinsic clearance in human liver microsomes. In kind it is in vitro ADME. As to the method: (§1) Intrinsic Clearance in Rat and Human Liver Microsomes
(§2) The in vitro intrinsic clearance (CL int) was investigated in commercially obtained hepatic microsomes from rat and human donors using the substrate depletion (i.e., loss-of-parent vs. time, or t 1/2 method) approach with analyte detection via liquid chromatography-tandem mass spectrometry (LC-MS/MS). For each species, mean %parent remaining values at each time point were calculated from replicates raw data (analyte:IS peak area ratios) and used to determine in vitro t 1/2 and CLint.
(§3) Experiments were carried out using a robot-assisted (TECAN model Evo 200). Compound was incubated (1 µM final concentration) in buffer (100 mM potassium phosphate pH 7.4 with 3 mM MgCl2) containing hepatic microsomes (0.5 mg/mL final concentration) from multiple species, discretely, at 37 °C under constant orbital shaking. After 5 minutes (pre-incubation), reactions were initiated by addition of nicotinamide adenine dinucleotide phosphate (NADPH, 1 mM final concentration). At selected time intervals (0, 3, 7, 15, 25, and 45 minutes) post-addition of NADPH, aliquots (50 µL) were taken and placed into a 96-shallow-well plate containing ice cold acetonitrile (150 µL) with carbamazepine (IS, 50 nM). The plates were then centrifuged (3000 rcf at 4 °C) for 10 minutes. The supernatants were transferred to a new 96-shallow-well daughter plate and diluted (1:1 v/v) with water (Milli-Q filtered). The plates were then sealed in preparation for LC-MS/MS analysis (see below).
(§4) Raw LC-MS/MS peak area data generated from the assay samples were used to construct natural log-transformed %parent remaining vs. time plots (using t = 0 minute post-NADPH addition sample data as starting point set to 100%). In vitro compound half-life (t 1/2) values were obtained using the following […]
(§5) k is the slope from linear regression analysis of the natural log-transformed data (using means from Where all replicates at each time point). Resulting t 1/2 values were then used to calculate hepatic CLint values according to the following equation and with the use of species-specific scale-up factors for liver weight (grams) per total body weight (kg): […]
(§6) CLint = in vitro t1/2 x 0.5 mg microsomes x 1 gram liver x kg body wt aScale-up factors used are 45 (rat) and 20 (human).2
(§7) Predicted hepatic clearance (CLhep) was calculated using the following equation: […]
(§8) Qh represents hepatic blood flow (mL/min/kg): 21 for human, 70 for rat, and 90 for mouse.
(§9) Prepared samples were injected (10 µL each) onto an AB Sciex Triple Quad 4500 mass spectrometer system with an Agilent 1260 Infinity II pump and autosampler. Mass spectrometer conditions are described in Table S1. Quantitation of compounds was performed via AB Sciex Multiquant software using the raw analyte:IS peak area ratios. The typical detection range was 0.5 ng/mL to ≥ 5,000 ng/mL utilizing a quadratic equation regression with 1/x2 weighting. […]
(§10) Table S1. LC-MS/MS Conditions*
(§11) Mobile phase A 0.5% Formic Acid in Water
(§12) Mobile phase B 0.5% Formic Acid in Acetonitrile
(§13) Gradient Time % Mobile Phase B

The nature of series [3]: Binding in plasma from human (equilibrium dialysis). The format is in vitro ADME. Particulars: human, plasma, read-out: human fu,plasma. How it is done:
(§14) Binding in plasma from rat and human.
(§15) Determination of compounds’ fraction unbound (f u) in plasma from rat and human was conducted in vitro via equilibrium dialysis using HTDialysis membrane plates. Dialysis membranes (four paired strips per HTD assay) were hydrated as described by the manufacturer and inserted into the HTD plate, which was assembled and prepared for sample addition by the dispensing of blank buffer (DPBS, 100 µL/well) into the ‘top half’ of each membrane-split well. Each compound was diluted into plasma from each species (5 µM final concentration), which was aliquoted in triplicate to the ‘bottom half’ of the prepared HTD plate wells. The HTD plate was sealed and incubated for 6 hours at 37 °C. Following incubation, each well (both top and bottom halves) were transferred (20 µL) to the corresponding wells of a 96-shallow-well (V-bottom) plate. The daughter plates were then matrix-matched (buffer side wells received equal volume of plasma, and plasma side wells received equal volume of buffer), and extraction solution (120 µL; acetonitrile containing 50 nM carbamazepine as IS) was added to all wells of both daughter plates to precipitate protein and extract test article. The plates were then sealed and centrifuged (3500 rcf) for 10 minutes at ambient temperature. Supernatant (60 µL) from each well of the daughter plates was then transferred to the corresponding wells of new daughter plates (96-shallow-well, V bottom) containing water (Milli-Q, 60 µL/well), and the plates were sealed in preparation for LC-MS/MS analysis (see below). fu was calculated as (analyte to IS MS peak area ratio from Trans-buffer side) / (analyte to IS MS peak area ratio from Cis-plasma side). Mean values for each species were calculated from 3 replicates.

Series [4] in a line: Intrinsic clearance in rat liver microsomes. The format is in vitro ADME. As to the method:
as §1, §2, §3, §4, §5, §6, §7, §8, §9, §10, §11, §12, §13

Series [5] addresses T1, human M4 (hM4) (Homo sapiens, UniProt P08173).
T1 construct: expressed in transfected cells
T1 sequence (P08173 1-479): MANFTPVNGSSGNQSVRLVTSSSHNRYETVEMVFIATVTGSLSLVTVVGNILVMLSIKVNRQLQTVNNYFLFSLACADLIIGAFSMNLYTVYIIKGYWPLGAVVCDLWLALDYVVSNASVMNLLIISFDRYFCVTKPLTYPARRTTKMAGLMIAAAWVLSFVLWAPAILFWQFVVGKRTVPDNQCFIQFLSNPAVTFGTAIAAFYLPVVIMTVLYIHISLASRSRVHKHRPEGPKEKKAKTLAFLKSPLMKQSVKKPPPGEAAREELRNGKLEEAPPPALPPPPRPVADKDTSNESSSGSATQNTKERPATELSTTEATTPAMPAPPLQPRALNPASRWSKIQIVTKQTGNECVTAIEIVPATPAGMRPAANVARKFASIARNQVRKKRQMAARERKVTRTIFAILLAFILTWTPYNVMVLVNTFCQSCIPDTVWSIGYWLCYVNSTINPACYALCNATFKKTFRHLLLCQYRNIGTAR
The series can be described thus: Calcium mobilization assay, hM4/Gqi5-CHO cells, EC20 acetylcholine (PAM). In kind it is cell-based.

The target of series [6] is rat M4 (rM4) (Rattus norvegicus, UniProt P08485). The series can be described thus: Calcium mobilization assay, rat M4. The format is cell-based.
The nature of series [7]: Rat plasma-to-brain level (PBL) cassette, brain distribution. The format is in vivo. Conditions: SD rat, 0.2 mg/kg IV.
Procedure: Blood samples were collected serially from a surgically implanted carotid artery catheter in each animal over multiple post-administration time points (0.033, 0.117, 0.25, 0.5, 1, 2, 4, 7, and 24 hours) into chilled, K2EDTA anticoagulant-fortified tubes and immediately placed on wet ice. The blood samples were then centrifuged (1700 rcf, 5 minutes, 4 °C) in order to obtain plasma samples, which were stored at -80 °C until
For determination of the brain over plasma ratio (Kp), compounds were formulated in 8% ethanol, 32% PEG400 and 60% DMSO (v/v/v) and administered as a single 0.2 mg/kg IV dose (1 mL/kg) to male, Sprague Dawley rats (n = 1; 316 gram body weights) via injection into a surgically-implanted jugular vein catheter. At 15 min post dosing, blood sample was collected serially (i.e., terminally) into chilled, K2EDTA anticoagulant-fortified tube and immediately placed on wet ice. The blood sample was then centrifuged (1700 rcf, 5 minutes, 4 °C) to obtain plasma sample. At the same post-administration time point, whole brain sample was obtained by rapid dissection, rinsed with PBS, and immediately frozen in individual tissue collection box (dry ice). All brain and plasma samples were stored at -80 °C until analysis by LC-MS/MS.
Samples preparation for bioanalysis
Plasma samples from the in-life phase of the study were thawed at ambient temperature (benchtop), and then aliquots (20 µL per sample) were transferred to a 96-shallow-well (V-bottom) plate. […] Acetonitrile (120 µL) containing IS (10 nM carbamazepine) was added to each well of the plate to precipitate protein. The plate was then centrifuged (4000 rcf, 5 minutes, ambient temperature), and resulting supernatants (60 µL each) were transferred to a new 96-shallow-well (V-bottom) plate containing an equal volume (60 µL per well) of water (Milli-Q purified).
Preparation of brain samples was identical to that of plasma samples except for the following modifications. While thawing, brains were weighed (inside their collection boxes using a universal empty collection box tare weight) and then subjected to mechanical homogenization (Mini-BeadBeater™, BioSpec Products, Inc., Bartlesville, OK) in the presence of zirconia/silica beads (1.0 mm) and extraction buffer (isopropanol:water, 7:3, v/v; 3 mL per sample, corrected for post-quantitation).
A short description of series [8]: Binding in plasma from rat (equilibrium dialysis). The format is in vitro ADME. Conditions: read-out: rat fu,plasma. How it is done:
as §14, §15

The mark [9] stands for this setting: predicted hepatic clearance from microsomal CLint.
Where [10] appears, read: fraction unbound, equilibrium dialysis.

Each structure is given as a SMILES string. Read-outs that look alike come from different tables or passages of the source.

Chain of rat M4 (rM4) (P08485 whole entry): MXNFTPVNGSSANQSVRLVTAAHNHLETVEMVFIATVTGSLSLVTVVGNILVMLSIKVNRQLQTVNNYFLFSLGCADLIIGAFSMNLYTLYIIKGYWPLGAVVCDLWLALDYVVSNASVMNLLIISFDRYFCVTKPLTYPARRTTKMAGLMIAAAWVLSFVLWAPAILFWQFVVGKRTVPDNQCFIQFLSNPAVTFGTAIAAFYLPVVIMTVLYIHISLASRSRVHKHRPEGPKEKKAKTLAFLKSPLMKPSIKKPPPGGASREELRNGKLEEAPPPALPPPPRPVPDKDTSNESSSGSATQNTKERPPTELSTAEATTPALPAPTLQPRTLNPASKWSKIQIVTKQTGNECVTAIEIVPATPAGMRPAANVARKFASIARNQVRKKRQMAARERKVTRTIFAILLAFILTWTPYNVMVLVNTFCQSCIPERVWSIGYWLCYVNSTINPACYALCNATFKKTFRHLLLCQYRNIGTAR

Take `Cc1nc(C)c2c(n1)sc1c(N3CC4(C3)CC(F)(F)C4)ncnc12` [14h]: the rat fbrain in series [1] (fraction unbound, equilibrium dialysis, rat brain homogenates) amounted to 0.033. Further, the fraction unbound at 6 h, 1 µM in series [1] (rat, brain homogenate, in %, read-out: fu,brain (rat brain homogenate)) is 0.012 to 0.033. Moreover, the intrinsic clearance (CLint scaled) at 1 µM amounted to 45 mL/min/kg in series [2] (pH 7.4, human liver microsomes) and 121 mL/min/kg in series [4] (pH 7.4, rat liver microsomes). Moreover, the “CLhep, human” value in series [2] (setting [9]) is recorded as 14 mL/min/kg. In addition, the fraction unbound at 6 h, 5 µM was 0.035 in series [3] (setting [10]), 0.01 to 0.05 in series [3] (in %), 0.132 in series [8] (setting [10]) and more than 0.05 in series [8] (in %). The “CLhep, rat” value in series [4] (setting [9]) is 44 mL/min/kg. The “fold increase in hM4 potency (EC50) vs comparator analogue” value in series [5] (14h vs 14c, 22g vs 14j, 22j vs 14k, 22k vs 14g, 22f vs 14e) was 16 fold. Besides, in series [5] (calcium mobilization, hM4/Gqi5-CHO cells, EC20 acetylcholine, read-out: hM4 %ACh Max), the Emax was 50%. In addition, the EC50 was 100 nM in series [5] (calcium mobilization, hM4/Gqi5-CHO cells, EC20 acetylcholine, read-out: hM4 EC50); 102 nM in series [5] (calcium mobilization, hM4/Gqi5-CHO cells, EC20 acetylcholine, read-out: hM4 pEC50 (converted)); 380 nM in series [6]. Also, the “Kp, brain:plasma” value in series [7] (0.25 h, total brain to total plasma ratio, 0.2 mg/kg) was determined as 5.07. The “Kp,uu, brain:plasma” value in series [7] (0.25 h, unbound brain to unbound plasma ratio, 0.2 mg/kg) is on record as 1.27; in series [7] (0.25 h, unbound brain to unbound plasma ratio, listed as VU6015976, 0.2 mg/kg) it was 0.76. Moreover, the Kp at 0.25 h in series [7] (male, Sprague-Dawley, rat, brain / plasma, iv, 0.2 mg/kg, total brain to total plasma ratio) was more than 5. For the same compound, the Kp uu at 0.25 h in series [7] (male, Sprague-Dawley, rat, brain / plasma, iv, 0.2 mg/kg, unbound brain to unbound plasma ratio) is more than 1.

The values are drawn from paper PMC11487561 (ACS Chemical Neuroscience, 2024).
